Measured values as given in patent publication US20230227484A1, “PYRIMIDINE COMPOUND AS AXL INHIBITOR” (NANJING CHIA TAI TIANQING PHARMACEUTICAL CO., LTD., priority 2020, published 2023).
pIC50: −log10 of the molar value.

Assays:
[1] = system: MV-4-11 (human myeloid monocytic leukemia cell line); assay: Proliferation inhibition activity of compounds to MV-4-11 cells (CellTiter-Glo); format: cell-based; conditions: MV4-11 cells, 72 h dosing
Method: MV-4-11 (human myeloid monocytic leukemia cell line, culture medium: JIMDM+10% fetal bovine serum) is purchased from Cobioer Biosciences Co., Ltd and cultured in a 5% C02 incubator at 37° C. The cells in a logarithmic growth phase are plated in a 96-well plate at cell densities of 8000 cells/well, 6000 cells/well, 2000 cells/well, 2000 cells/well and 3000 cells/well, and a blank control group is set at the same time.
A compound to be tested and the positive drug are dissolved in dimethyl sulfoxide to prepare a 10 mM stock solution, which is then stored in −80° C. refrigerator for long-time storage. After the cells are plated for 24 h, the 10 mM compound stock solution is diluted with dimethyl sulfoxide to obtain a working solution having a 200-fold concentration (the highest concentration is 200 or 2000 μM, a 3-fold gradient, a total of 10 concentrations), and 3 μL of the working solution of each concentration is added to 197 μL of complete medium, and diluted into a working solution of 3-fold concentration. 50 μL of the working solution is then taken and added to a 100 μL cell culture medium (a final concentration of dimethyl sulfoxide is 0.5%, v/v), and two complex holes are set for each concentration. After 72 h of dosing treatment, 50 μl of CellTiter-Glo® (purchased from Promega) is added to each well. Fluorescence signals are measured on Envision (PerkinElmer) according to an operating procedure of the specification. GraphPad Prism 5 software log(inhibitor) vs. response-Variable slope is used to fit a dose-response curve, so as to obtain the IC50 value of the compound to the inhibition of cell-proliferation. The calculation formulation of the inhibition rate is as follows: […]
wherein: signal value of subject: a mean fluorescence signal of cell+medium+compound group; signal value of blank group: a mean fluorescence signal of medium group (containing 0.5% DMSO); signal value of negative control group: a mean fluorescence signal of cell+medium group (containing 0.5% DMSO).

[2] = target: T1, AXL kinase (Homo sapiens, UniProt P30530); assay: Inhibitory activity of compound against AXL kinase (HTRF KinEASE); format: biochemical; conditions: AXL enzyme (Carna, 08-107), ATP 15 μM; "<" means below detection limit of the test
T1 construct: purchased Carna 08-107
T1 sequence (P30530 473-894 limits assumed): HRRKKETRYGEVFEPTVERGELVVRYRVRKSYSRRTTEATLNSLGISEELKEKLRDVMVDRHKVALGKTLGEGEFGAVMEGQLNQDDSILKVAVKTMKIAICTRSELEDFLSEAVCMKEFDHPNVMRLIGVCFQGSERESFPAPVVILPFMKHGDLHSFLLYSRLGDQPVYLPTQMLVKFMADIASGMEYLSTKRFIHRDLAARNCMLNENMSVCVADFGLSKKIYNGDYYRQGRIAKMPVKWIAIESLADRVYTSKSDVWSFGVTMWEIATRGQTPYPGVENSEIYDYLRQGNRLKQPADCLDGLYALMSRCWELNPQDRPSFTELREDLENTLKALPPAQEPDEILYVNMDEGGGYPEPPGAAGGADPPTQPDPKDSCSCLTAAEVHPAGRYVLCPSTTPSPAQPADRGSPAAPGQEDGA
In short: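 AXL enzyme (final 0.016 ng/uL) was preincubated with compound (8 concentrations from 1 μM, ½ log steps) for 15 min at room temperature, then reacted with TK Substrate 3-biotin (final 1) and ATP (final 15 μM) for 45 min at 25° C. Phosphorylation was read by HTRF (TK antibody-cryptate, streptavidin-XL665, 1 h); IC50 from variable-slope dose-response fit.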

[3] = Pharmacokinetic study of compounds on ICR mice; format: in vivo; conditions: mouse, po, male ICR mice, plasma; for Cmax / Tmax / half-life: 10 mg-kg^1 by gavage; for AUC(0-t): 10 mg/kg-kg^1 by gavage, read-out: AUC0-24
Method: Each compound is prepared with DMSO into a 10 mg/mL stock solution.
Preparation of mixed solvent: Tween 80: PEG400: Water=1:9:90 (v/v/v)
450 μl of the compound DMSO stock solution with a concentration of 10 mg/nmL is accurately sucked into a glass bottle, and added with an appropriate volume of DMSO and mixed solvent, wherein a ratio of the solvent in the final formulation is DMSO: mixed solvent (v/v)=10:90. The mixed solution is vortexed (or ultrasonically treated), and dispersed uniformly to obtain 4.5 mL. administration test solutions with a concentration of 1 mg/nL, respectively.
Male 6-10 week old ICR mice (sourced from: Beijing Vital River Laboratory Animal Technology Co., Ltd.) are taken, 6 mice in each group. The mice are fasted overnight and fed 4 h after the administration. On the day of the experiment, the mice are administrated with 10 mg-kg^1 of compound test solution by gavage. After administration, about 100 μL of blood is harvested from the orbits of the mice at 0 min, 5 mmn, 15 mmn, 30 min, 14 h 2 h, 4 h, 8 h, and 24 h, and placed in EDTA-K2 anticoagulant tubes. The whole blood sample is centrifuged at 1500 to 1600 g for 10 mm, and the plasma obtained by separation is stored in a refrigerator at −40 to −20° C. for biological sample analysis. The blood drug concentration is determined by an LC-MS/MS method.
A non-compartmental model in Pharsight Phoenix 7.0 is used to calculate pharmacokinetic parameters. The specific results are shown in 5 the table below.

| Compound | pIC50 [1] | IC50 [2] [nM] | Cmax [3] [ng/mL] | Tmax [3] [h] | half-life [3] [h] | AUC(0-t) [3] [ng·h/mL] |
| --- | --- | --- | --- | --- | --- | --- |
| CNC(=O)c1cc(C#N)ccc1Nc1nc(Nc2ccc3c(c2)CC[C@@H](N2CCCC2)CC3)ncc1Cl [Example 34, (S)-2-((5-chloro-2-((7-(pyrrolidin-1-yl)-6,7,8,9-tetrahydro-5H-benzo[7]annulen-2-yl)amino)pyrimidin-4-yl)amino)-5-cyano-N-methylbenzamide] | 8.21 | 1.27 |  |  |  |  |
| CNC(=O)c1cc(Cl)ccc1Nc1nc(Nc2ccc3c(c2)CC[C@@H](N2CCCC2)CC3)ncc1Cl [Example 36, (S)-5-chloro-2-((5-chloro-2-((7-(pyrrolidin-1-yl)-6,7,8,9-tetrahydro-5H-benzo[7]annulen-2-yl)amino)pyrimidin-4-yl)amino)-N-methylbenzamide] | 8.29 | 0.36 |  |  |  |  |
| CNC(=O)c1cc(OC)ccc1Nc1nc(Nc2ccc3c(c2)CC[C@@H](N2CCCC2)CC3)ncc1Cl [Example 37, (S)-2-((5-chloro-2-(((7-(pyrrolidin-1-yl)-6,7,8,9-tetrahydro-5H-benzo[7]annulen-2-yl)amino))pyrimidin-4-yl)amino)-5-methoxyl-N-methylbenzamide] | 8.47 | 0.18 |  |  |  |  |
| O=C(NC1CCOC1)c1ccccc1Nc1nc(Nc2ccc3c(c2)CC[C@@H](N2CCCC2)CC3)ncc1Cl (stereo partly drawn) [Example 39] | 8.19 | 2.59 |  |  |  |  |
| Clc1cnc(Nc2ccc3c(c2)CC[C@@H](N2CCCC2)CC3)nc1Nc1ccccc1CN1CCOCC1 [Example 40, (S)-5-chloro-N^4-(2-(morpholinmethyl)phenyl)-N^2-(7-(pyrrolidin-1-yl)-6,7,8,9-tetrahydro-5H-benzo[7]annulen-2-yl)pyrimidine-2,4-diamine] | 8.31 | 0.72 |  |  |  |  |
| O=S(=O)(Nc1ccccc1Nc1nc(Nc2ccc3c(c2)CC[C@@H](N2CCCC2)CC3)ncc1Cl)C1CC1 [Example 41, (S)—N-(2-((5-chloro-2-((7-(pyrrolidin-1-yl)-6,7,8,9-tetrahydro-5H-benzo[7]annulen-2-yl)amino)pyrimidin-4-yl)amino)phenyl)cyclopropanesulfonamide] | 8.37 | 2.08 |  |  |  |  |
| CNC(=O)c1cc(O)ccc1Nc1nc(Nc2ccc3c(c2)CC[C@@H](N2CCCC2)CC3)ncc1Cl [Example 45, (S)-2-((5-chloro-2-((7-(pyrrolidin-1-yl)-6,7,8,9-tetrahydro-5H-benzo[7]annulen-2-yl)amino)pyrimidin-4-yl)amino)-5-hydroxyl-N-methylbenzamide] | 8.46 | 0.5 |  |  |  |  |
| CNC(=O)c1cc(F)ccc1Nc1nc(Nc2ccc3c(c2)CCN(C2CCOCC2)CC3)ncc1Cl [Example 46, 2-((5-chloro-2-((3-(tetrahydro-2H-pyran-4-yl)-2,3,4,5-tetrahydro-1H-benzo[d]aza-7-yl)amino)pyrimidin-4-yl)amino)-5-fluoro-N-methylbenzamide] | 8.79 | 0.8 |  |  |  |  |
| CN1Cc2cccc(Nc3nc(Nc4ccc5c(c4)CCN(C4CCOCC4)CC5)ncc3Cl)c2C1=O [Example 49, 7-((5-chloro-2-((3-(tetrahydro-2H-pyran-4-yl)-2,3,4,5-tetrahydro-1H-benzo[d]aza-7-yl)amino)pyrimidin-4-yl)amino)-2-methylisoindolin-1-one] | 8.08 | 9.85 |  |  |  |  |
| CP(C)(=O)c1cc(F)ccc1Nc1nc(Nc2ccc3c(c2)CC[C@@H](N2CCCC2)CC3)ncc1Cl [Example 51, (S)-(2-((5-chloro-2-((7-(pyrrolidin-1-yl)-6,7,8,9-tetrahydro-5H-benzo[7]annulen-2-yl)amino)pyrimidin-4-yl)amino)-5-fluorophenyl)dimethyl phosphine oxide] | 8.34 | 2.6 | 419 | 0.5 | 2.17 | 1070 |
| CP(C)(=O)c1cc(Cl)ccc1Nc1nc(Nc2ccc3c(c2)CC[C@@H](N2CCCC2)CC3)ncc1Cl [Example 52] | 8.27 | 1.06 | 429 | 0.5 | 2.42 | 1150 |
| CP(C)(=O)c1cc(O)ccc1Nc1nc(Nc2ccc3c(c2)CC[C@@H](N2CCCC2)CC3)ncc1Cl [Example 61, (S)-(2-((5-chloro-2-((7-(pyrrolidin-1-yl)-6,7,8,9-tetrahydro-5H-benzo[7]annulen-2-yl)amino)pyrimidin-4-yl)amino)-5-hydroxyphenyl)dimethyl phosphine oxide] | 8.15 | 2.38 |  |  |  |  |
| CP(C)(=O)c1cc(F)c(Cl)cc1Nc1nc(Nc2ccc3c(c2)CC[C@@H](N2CCCC2)CC3)ncc1Cl [Example 118, (S)-(4-chloro-2-((5-chloro-2-((7-(pyrrolidin-1-yl)-6,7,8,9-tetrahydro-5H-benzoannulen-2-yl)amino)pyrimidin-4-yl)amino)-5-fluorophenyl)dimethyl phosphine oxide] | 7.52 | 5.45 |  |  |  |  |
| COc1c(F)ccc(Nc2nc(Nc3ccc4c(c3)CC[C@@H](N3CCCC3)CC4)ncc2Cl)c1P(C)(C)=O [Example 134, (S)-(6-((5-chloro-2-((7-(pyrrolidin-1-yl)-6,7,8,9-tetrahydro-5H-benzo[7]annulen-2-yl)amino)pyrimidin-4-yl)amino)-3-fluoro-2-methoxyphenyl)dimethyl phosphine oxide] | 8.44 | 0.85 |  |  |  |  |
| Cc1c(F)ccc(Nc2nc(Nc3ccc4c(c3)CC[C@@H](N3CCCC3)CC4)ncc2Cl)c1P(C)(C)=O [Example 135, (S)-(6-((5-chloro-2-((7-(pyrrolidin-1-yl)-6,7,8,9-tetrahydro-5H-benzo[7]annulen-2-yl)amino)pyrimidin-4-yl)amino)-3-fluoro-2-methylphenyl)dimethyl phosphine oxide] | 8.37 | 1.35 |  |  |  |  |
| CC(C)(O)c1ccc(Nc2nc(Nc3ccc4c(c3)CC[C@@H](N3CCCC3)CC4)ncc2Cl)c(P(C)(C)=O)c1 [Example 138] | 7.38 | 5.29 |  |  |  |  |
| CP(C)(=O)c1cc(CO)ccc1Nc1nc(Nc2ccc3c(c2)CC[C@@H](N2CCCC2)CC3)ncc1Cl [Example 141, (S)-(2-((5-chloro-2-((7-(pyrrolidin-1-yl)-6,7,8,9-tetrahydro-5H-benzo[7]annulen-2-yl)amino)pyrimidin-4-yl)amino)-5-(hydroxymethyl)phenyl)dimethyl phosphine oxide] | 7.86 | 2.43 |  |  |  |  |
